Reference: patent EP2271935B1, “METHOD AND KIT FOR THE EX VIVO EVALUATION OF THE RESPONSE OF A TUMOR TO CONDITIONS TO BE TESTED” (Universität Leipzig, priority 2008, dated 2009)
Like-named read-outs stand apart in the source and are kept apart here.

Tested on: epithelial cell line KB (DSMZ ACC 136)
Experiment: MTT assay of proliferation under varied riboflavin content and light exposure
Type: cell-based, human
Excerpt: To address this question, three media, a) the RPMI 1640 without riboflavin and phenol red that is used in the method according to the invention and was manufactured according to our specifications by Biochrom, as well as two different RPMI 1640 charges purchased from Invitrogen which were each containing 532 nmol/L riboflavin, b) a phenol red-free (Gibco 11835), and c) a conventional RPMI 1640 (Gibco 21875) with 13.284 µmol/L phenol red. All media were supplemented with 2 mmol/L L-alanyl-1-glutamine as stabilized glutamine source (Biochrom K0302 Lot 0755 S) and the same amount of 10% (v/v) of heat-inactivated fetal calf serum (FCS) that was purchased from Invitrogen (Lot 41Q7554K) with a yield of 198 nmol/L riboflavin. […] These medium concentrations define the riboflavin concentrations in controls (see below).
In addition to the influences exerted by the different types of media alone, the riboflavin-dependent impact on the outcome of the docetaxel treatment was investigated. For this purpose 100 µl/well of docetaxel dilutions containing threefold the concentration indicated were added into the wells of microwell plates. The following seven docetaxel concentrations were tested: 19.38, 38.75, 77.5, 155, 310, 620, and 1,240 pmol/L.
To examine photoactivation-dependent riboflavin-mediated effects disturbing the outcome of ex-vivo chemoresponse-evaluation by conventional cell culture medium, and in particular in the absence of flavin-protecting experimental conditions, varying amounts of riboflavin were added. A stock solution of 200 µM (-)-riboflavin (CAS 83-68-5, Sigma R9504, FW=376.37 g/mol, purity >99%, cell culture tested) in phosphate buffered saline was diluted to adjust in each case the highest final concentration in culture (this means: after completion of the assay by addition of the other two components to the final assay volume of 300 µL) to exactly 10 µmol/L. Serial log10-dilutions were made from this concentration in each corresponding medium. These gave final concentrations in cell culture of 10.000, 1.018, 0.12, and 0.03 µmol/L in the case of medium a) (the medium according to the method of the invention), and concentrations of 10.000, 1.449, 0.594, and 0.508 µmol/L using media b) and c).
In general, each combination of riboflavin and docetaxel were tested in duplicate, and controls without additional riboflavin in quadruplicate for each experimental setting in the same 96-well plate. The experimental conditions were as follows: For each of the used media, two different plates were prepared simultaneously and either handled completely under flavin-protecting conditions (illumination only by sodium discharge lamps with an emission wavelength of 589 nm [i]), or in the same bench (Thermo MSC 12) with the installed light inside their working chamber switched on. The dilution of docetaxel and those of riboflavin in the particular medium were prepared for all four plates of each medium type prior to the other working steps under flavin-protecting conditions. Thus the administrations of these dilutions took about 20 min either under flavin-protecting conditions or illuminated conditions. After completed preparation of the plates that thereafter contained 200 µL of both diluted compounds, the plates were incubated 2 h in the incubator to allow for adjustment of the appropriate pH.
In between the stock culture of KB was harvested by trypsination of a 3-days stock culture (exponential growth phase). Stock cultures of KB cells always were grown without any antibiotic or antimycotic in phenol red- and riboflavin-free RPMI 1640 supplemented with 10% (v/v) FCS and were adapted to this medium for more than five passages. They were always handled at room temperature or warmer and were never exposed to light other than the light of a sodium discharge lamp with an emission wavelength of 589 nm for at least five passages. […]

Structure (SMILES): CC(=O)O[C@@]12CO[C@@H]1C[C@H](O)[C@@]1(C)C(=O)[C@H](O)C3=C(C)[C@@H](OC(=O)[C@H](O)[C@@H](NC(=O)OC(C)(C)C)c4ccccc4)C[C@@](O)([C@@H](OC(=O)c4ccccc4)[C@H]21)C3(C)C [docetaxel]
- IC50 (Homo sapiens, Epithelial cell, 0.5 h, Plate No. 11; Riboflavin 499 nmol/L; medium c), bench lighting <30 min, read-out: IC50 for docetaxel normalized to medium control of medium with same riboflavin content): 0.1 nM
- IC50 (Homo sapiens, Epithelial cell, 0.5 h, Plate No. 11; Riboflavin 508 nmol/L; medium c) conventional RPMI 1640 with phenol red, bench lighting <30 min, read-out: IC50 for docetaxel with reference to control with same riboflavin content): 0.284 nM
- IC50 (Homo sapiens, Epithelial cell, 0.5 h, Plate No. 11; Riboflavin 508 nmol/L; medium c), bench lighting <30 min, read-out: IC50 for docetaxel normalized to medium control of medium with same riboflavin content): 0.126 nM
- IC50 (Homo sapiens, Epithelial cell, 0.5 h, Plate No. 11; Riboflavin 594 nmol/L; medium c) conventional RPMI 1640 with phenol red, bench lighting <30 min, read-out: IC50 for docetaxel with reference to control with same riboflavin content): 0.233 nM
- IC50 (Homo sapiens, Epithelial cell, 0.5 h, Plate No. 11; Riboflavin 594 nmol/L; medium c), bench lighting <30 min, read-out: IC50 for docetaxel normalized to medium control of medium with same riboflavin content): 0.103 nM
- IC50 (Homo sapiens, Epithelial cell, 0.5 h, Plate No. 11; Riboflavin 1449 nmol/L; medium c) conventional RPMI 1640 with phenol red, bench lighting <30 min, read-out: IC50 for docetaxel with reference to control with same riboflavin content): 0.275 nM
- IC50 (Homo sapiens, Epithelial cell, 0.5 h, Plate No. 11; Riboflavin 1449 nmol/L; medium c), bench lighting <30 min, read-out: IC50 for docetaxel normalized to medium control of medium with same riboflavin content): 0.122 nM
- IC50 (Homo sapiens, Epithelial cell, 0.5 h, Plate No. 11; Riboflavin 10000 nmol/L; medium c) conventional RPMI 1640 with phenol red, bench lighting <30 min, read-out: IC50 for docetaxel with reference to control with same riboflavin content): 0.247 nM
- IC50 (Homo sapiens, Epithelial cell, 0.5 h, Plate No. 11; Riboflavin 10000 nmol/L; medium c), bench lighting <30 min, read-out: IC50 for docetaxel normalized to medium control of medium with same riboflavin content): 0.11 nM
- IC50 (Homo sapiens, Epithelial cell, 0.5 h, Plate No. 12; Riboflavin 499 nmol/L; medium c) conventional RPMI 1640 with phenol red, bench lighting <30 min, daylight 30 min, read-out: IC50 for docetaxel with reference to control with same riboflavin content): 0.339 nM
- IC50 (Homo sapiens, Epithelial cell, 0.5 h, Plate No. 12; Riboflavin 499 nmol/L; medium c), bench lighting <30 min, daylight 30 min, read-out: IC50 for docetaxel normalized to medium control of medium with same riboflavin content): 0.1 nM
- IC50 (Homo sapiens, Epithelial cell, 0.5 h, Plate No. 12; Riboflavin 508 nmol/L; medium c) conventional RPMI 1640 with phenol red, bench lighting <30 min, daylight 30 min, read-out: IC50 for docetaxel with reference to control with same riboflavin content): 0.239 nM
- IC50 (Homo sapiens, Epithelial cell, 0.5 h, Plate No. 12; Riboflavin 508 nmol/L; medium c), bench lighting <30 min, daylight 30 min, read-out: IC50 for docetaxel normalized to medium control of medium with same riboflavin content): 0.0705 nM
- IC50 (Homo sapiens, Epithelial cell, 0.5 h, Plate No. 12; Riboflavin 594 nmol/L; medium c) conventional RPMI 1640 with phenol red, bench lighting <30 min, daylight 30 min, read-out: IC50 for docetaxel with reference to control with same riboflavin content): 0.2 nM
- IC50 (Homo sapiens, Epithelial cell, 0.5 h, Plate No. 12; Riboflavin 594 nmol/L; medium c), bench lighting <30 min, daylight 30 min, read-out: IC50 for docetaxel normalized to medium control of medium with same riboflavin content): 0.0591 nM
- IC50 (Homo sapiens, Epithelial cell, 0.5 h, Plate No. 12; Riboflavin 1449 nmol/L; medium c) conventional RPMI 1640 with phenol red, bench lighting <30 min, daylight 30 min, read-out: IC50 for docetaxel with reference to control with same riboflavin content): 0.153 nM
- IC50 (Homo sapiens, Epithelial cell, 0.5 h, Plate No. 12; Riboflavin 1449 nmol/L; medium c), bench lighting <30 min, daylight 30 min, read-out: IC50 for docetaxel normalized to medium control of medium with same riboflavin content): 0.045 nM
- IC50 (Homo sapiens, Epithelial cell, Plate No. 01; Riboflavin 20 nmol/L; medium a) RPMI 1640 without riboflavin and phenol red, flavin-protecting conditions, read-out: IC50 for docetaxel with reference to control with same riboflavin content): 0.209 nM
- IC50 (Homo sapiens, Epithelial cell, Plate No. 01; Riboflavin 20 nmol/L; medium a), flavin-protecting conditions, read-out: IC50 for docetaxel normalized to medium control of medium with same riboflavin content): 0.1 nM
- IC50 (Homo sapiens, Epithelial cell, Plate No. 01; Riboflavin 30 nmol/L; medium a) RPMI 1640 without riboflavin and phenol red, flavin-protecting conditions, read-out: IC50 for docetaxel with reference to control with same riboflavin content): 0.206 nM
- IC50 (Homo sapiens, Epithelial cell, Plate No. 01; Riboflavin 30 nmol/L; medium a), flavin-protecting conditions, read-out: IC50 for docetaxel normalized to medium control of medium with same riboflavin content): 0.0986 nM
- IC50 (Homo sapiens, Epithelial cell, Plate No. 01; Riboflavin 120 nmol/L; medium a) RPMI 1640 without riboflavin and phenol red, flavin-protecting conditions, read-out: IC50 for docetaxel with reference to control with same riboflavin content): 0.23 nM
- IC50 (Homo sapiens, Epithelial cell, Plate No. 01; Riboflavin 120 nmol/L; medium a), flavin-protecting conditions, read-out: IC50 for docetaxel normalized to medium control of medium with same riboflavin content): 0.11 nM
- IC50 (Homo sapiens, Epithelial cell, Plate No. 01; Riboflavin 1018 nmol/L; medium a) RPMI 1640 without riboflavin and phenol red, flavin-protecting conditions, read-out: IC50 for docetaxel with reference to control with same riboflavin content): 0.222 nM
- IC50 (Homo sapiens, Epithelial cell, Plate No. 01; Riboflavin 1018 nmol/L; medium a), flavin-protecting conditions, read-out: IC50 for docetaxel normalized to medium control of medium with same riboflavin content): 0.106 nM
- IC50 (Homo sapiens, Epithelial cell, Plate No. 01; Riboflavin 10000 nmol/L; medium a) RPMI 1640 without riboflavin and phenol red, flavin-protecting conditions, read-out: IC50 for docetaxel with reference to control with same riboflavin content): 0.257 nM
